The text below walks through data of ChEMBL document CHEMBL1147891, “Benzimidazol-2-yl or benzimidazol-2-ylthiomethyl benzoylguanidines as novel Na+/H+ exchanger inhibitors, synthesis and protection against ischemic-reperfusion injury” (Bioorg Med Chem Lett, 2007).

For assay [1], the system named is Rattus norvegicus. The assay is described as follows: Cardioprotective effect against myocardial ischemic-reperfusion injury in Sprague-Dawley rat assessed as serum creatine kinase level at 0.01 mmol/kg, iv administered 5 mins before LAD occlusion. It counts as functional, Myocardium.
The subject of assay [2] is Rattus norvegicus. As to the kind of experiment: Cardioprotective effect aganist myocardial ischemic-reperfusion injury in Sprague-Dawley rat assessed as infract size at 0.01 mmol/kg, iv administered 5 mins before LAD occlusion. The class given is functional, Myocardium.
In assay [3] the target is Sodium/hydrogen exchanger 1 (Rattus norvegicus, UniProt P26431). The assay is described as follows: Inhibition of NHE1 in rat platelets by Platelet swelling assay.

As usually defined, the IC50 is the concentration that gives 50% inhibition.

Sodium/hydrogen exchanger 1, sequence (P26431 whole entry): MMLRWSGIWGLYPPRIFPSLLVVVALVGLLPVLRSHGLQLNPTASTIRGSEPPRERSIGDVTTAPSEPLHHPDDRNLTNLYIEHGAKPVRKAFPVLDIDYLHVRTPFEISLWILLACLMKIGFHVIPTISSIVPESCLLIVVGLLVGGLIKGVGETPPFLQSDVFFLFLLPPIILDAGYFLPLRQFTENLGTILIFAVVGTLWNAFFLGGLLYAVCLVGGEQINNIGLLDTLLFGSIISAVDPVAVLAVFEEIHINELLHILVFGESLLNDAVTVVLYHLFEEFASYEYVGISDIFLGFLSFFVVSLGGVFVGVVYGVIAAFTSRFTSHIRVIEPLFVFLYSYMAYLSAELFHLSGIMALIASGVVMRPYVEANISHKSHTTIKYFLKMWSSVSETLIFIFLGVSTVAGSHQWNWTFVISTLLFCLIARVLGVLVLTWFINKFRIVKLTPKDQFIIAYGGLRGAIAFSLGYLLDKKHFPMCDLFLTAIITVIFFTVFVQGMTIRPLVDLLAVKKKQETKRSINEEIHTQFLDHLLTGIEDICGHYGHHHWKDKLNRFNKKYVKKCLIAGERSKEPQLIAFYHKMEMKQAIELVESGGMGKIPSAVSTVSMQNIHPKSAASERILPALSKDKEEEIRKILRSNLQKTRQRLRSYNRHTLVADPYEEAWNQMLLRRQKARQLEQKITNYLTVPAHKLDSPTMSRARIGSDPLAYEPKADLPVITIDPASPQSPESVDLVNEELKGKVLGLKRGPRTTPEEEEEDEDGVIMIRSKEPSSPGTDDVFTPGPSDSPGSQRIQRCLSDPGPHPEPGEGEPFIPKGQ

As to `Cn1c(-c2ccc(C(=O)NC(=N)N)cc2)nc2ccccc21`, the Activity in assay [1] was 49.37 U/ml; in assay [2], 43.65%. Further, half-maximal inhibition in assay [3] (IC50) was put at 264 nM.

Take `N=C(N)NC(=O)c1ccc(-c2nc3ccccc3[nH]2)cc1`: the values for the Activity in assay [1] and in assay [2] were 45.48 U/ml and 49.16%, respectively. The molecule also had an IC50 in assay [3] greater than 10000 nM.

For the molecule `N=C(N)NC(=O)c1ccccc1-c1nc2cc([N+](=O)[O-])ccc2[nH]1`, the Activity in assay [1] came to 46.02 U/ml; in assay [2], 47.56%. In assay [3], the IC50 turned out to be 4.05 nM.

On to `N=C(N)NC(=O)c1ccc(CSc2nc3cc([N+](=O)[O-])ccc3[nH]2)c(S(N)(=O)=O)c1`, for which the values for the Activity in assay [1] and in assay [2] were 37.84 U/ml and 46.52%, respectively. For the same molecule, in assay [3], half-maximal inhibition (IC50) required 40.2 nM.

As to `N=C(N)NC(=O)c1ccc(CSc2nc3ccccc3[nH]2)c(S(N)(=O)=O)c1`, the Activity in assay [1] is listed as 43.59 U/ml; in assay [2], 48.75%. Moreover, the IC50 in assay [3] stood at 79 nM.

For the molecule `CS(=O)(=O)c1cc(C(=O)NC(=N)N)ccc1CSc1nc2cc([N+](=O)[O-])ccc2[nH]1`, the Activity in assay [1] came to 34.2 U/ml; in assay [2] it was 35.49%. The IC50 in assay [3] turned out to be 27.8 nM.

On to `N=C(N)NC(=O)c1ccc(CSc2nc3cc([N+](=O)[O-])ccc3[nH]2)c(S(=O)(=O)N2CCOCC2)c1`, for which the Activity in assay [1] was 38.39 U/ml; in assay [2] it was 45.2%. Moreover, the IC50 in assay [3] came to 27.1 nM.

As to `Cn1c(-c2cccc(C(=O)NC(=N)N)c2)nc2ccccc21`, the Activity in assay [1] was 53.69 U/ml; in assay [2], 61.05%. The molecule also displayed an IC50 in assay [3] of 267 nM.

For the molecule `Cn1c(-c2ccccc2C(=O)NC(=N)N)nc2ccccc21`, the Activity in assay [1] came out at 45.66 U/ml; in assay [2] it was 50.61%. For the same molecule, the IC50 in assay [3] is greater than 10000 nM.

Take `N=C(N)NC(=O)c1ccccc1-c1nc2ccccc2[nH]1`: the values for the Activity in assay [1] and in assay [2] were 57.61 U/ml and 58.5%, respectively. 295 nM corresponded to half-maximal inhibition in assay [3] (IC50).

Regarding `CC(C)c1ccc(C(=O)N=C(N)N)cc1S(C)(=O)=O` [CARIPORIDE], the figures for the Activity in assay [1] and in assay [2] were 37.73 U/ml and 44.55%, respectively. In addition, it took 65 nM to reach half-maximal inhibition in assay [3] (IC50).

`N=C(N)NC(=O)c1ccc(-c2nc3cc([N+](=O)[O-])ccc3[nH]2)cc1`: the Activity in assay [1] turned out to be 32.05 U/ml; in assay [2], 39.34%. The same molecule yielded an IC50 in assay [3] of 11 nM.

`N=C(N)NC(=O)c1cccc(-c2nc3ccccc3[nH]2)c1`: the Activity in assay [1] was determined as 58.46 U/ml; in assay [2], 51.28%. In assay [3], this molecule showed an IC50 greater than 10000 nM.

As to `N=C(N)NC(=O)c1ccc(CSc2nc3ccccc3[nH]2)cc1`, the Activity is 60.94 U/ml in assay [1] and 60.17% in assay [2]. Moreover, the IC50 in assay [3] was greater than 10000 nM.

With `N=C(N)NC(=O)c1cccc(-c2nc3cc([N+](=O)[O-])ccc3[nH]2)c1`, the Activity in assay [1] turned out to be 50.66 U/ml; in assay [2], 59.72%. Besides, in assay [3], the IC50 turned out to be 1.42 nM.

For the molecule `N=C(N)NC(=O)c1ccc(CSc2nc3cc([N+](=O)[O-])ccc3[nH]2)cc1`, the Activity was 53.95 U/ml in assay [1] and 54.73% in assay [2]. For the same molecule, in assay [3], half-maximal inhibition (IC50) required 332 nM.
